Test results reported in the supplement of paper PMC10307832.

How the values were obtained:
Assay in all cases: relative viability (nuclei count vs DMSO), 5 days (fraction); higher = more cells survive
Palbociclib + Trametinib = compound: CC(=O)c1c(C)c2cnc(Nc3ccc(N4CCNCC4)cn3)nc2n(C2CCCC2)c1=O [Palbociclib] + CC(=O)Nc1cccc(-n2c(=O)n(C3CC3)c(=O)c3c(Nc4ccc(I)cc4F)n(C)c(=O)c(C)c32)c1 [Trametinib] (partner 0.02 µM)
In short: (§1)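 Relative viability is defined as nuclei in treated wells over nuclei in vehicle wells. Duplicate plates were run and medians reported. Lung cancer cell lines in 1536-well plates were dosed by pin tool one day after seeding, with one drug or with a fixed anchor-drug dose plus five library-drug doses (not always all listed) in √10 steps, and nuclei were counted after 5 days.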

Palbociclib + Crizotinib = compound: CC(=O)c1c(C)c2cnc(Nc3ccc(N4CCNCC4)cn3)nc2n(C2CCCC2)c1=O [Palbociclib] + C[C@@H](Oc1cc(-c2cnn(C3CCNCC3)c2)cnc1N)c1c(Cl)ccc(F)c1Cl [Crizotinib] (partner 1 µM)
In short: as §1

Palbociclib + Tozasertib = compound: CC(=O)c1c(C)c2cnc(Nc3ccc(N4CCNCC4)cn3)nc2n(C2CCCC2)c1=O [Palbociclib] + Cc1cc(Nc2cc(N3CCN(C)CC3)nc(Sc3ccc(NC(=O)C4CC4)cc3)n2)n[nH]1 [Tozasertib] (partner 0.1 µM)
In short: as §1

Palbociclib + AZD7762 = compound: CC(=O)c1c(C)c2cnc(Nc3ccc(N4CCNCC4)cn3)nc2n(C2CCCC2)c1=O [Palbociclib] + NC(=O)Nc1cc(-c2cccc(F)c2)sc1C(=O)N[C@H]1CCCNC1 [AZD7762] (partner 0.2 µM)
In short: as §1

| Cell Line | relative viability (Palbociclib + Trametinib; first compound 0.01 µM) | relative viability (Palbociclib + Trametinib; first compound 0.03162 µM) | relative viability (Palbociclib + Trametinib; first compound 0.1 µM) | relative viability (Palbociclib + Trametinib; first compound 0.3162 µM) | relative viability (Palbociclib + Trametinib; first compound 1 µM) | relative viability (Palbociclib + Crizotinib; first compound 0.01 µM) | relative viability (Palbociclib + Crizotinib; first compound 0.03162 µM) | relative viability (Palbociclib + Crizotinib; first compound 0.1 µM) | relative viability (Palbociclib + Crizotinib; first compound 0.3162 µM) | relative viability (Palbociclib + Crizotinib; first compound 1 µM) | relative viability (Palbociclib + Tozasertib; first compound 0.01 µM) | relative viability (Palbociclib + Tozasertib; first compound 0.03162 µM) | relative viability (Palbociclib + Tozasertib; first compound 0.1 µM) | relative viability (Palbociclib + Tozasertib; first compound 0.3162 µM) | relative viability (Palbociclib + Tozasertib; first compound 1 µM) | relative viability (Palbociclib + AZD7762; first compound 0.01 µM) | relative viability (Palbociclib + AZD7762; first compound 0.03162 µM) | relative viability (Palbociclib + AZD7762; first compound 0.1 µM) | relative viability (Palbociclib + AZD7762; first compound 0.3162 µM) | relative viability (Palbociclib + AZD7762; first compound 1 µM) |
| --- | --- | --- | --- | --- | --- | --- | --- | --- | --- | --- | --- | --- | --- | --- | --- | --- | --- | --- | --- | --- |
| NCI-H2405 | 0.614 | 0.509 | 0.531 | 0.555 | 0.447 | 0.829 | 0.649 | 0.698 | 0.703 | 0.586 | 0.75 | 0.651 | 0.663 | 0.574 | 0.509 | 0.666 | 0.78 | 0.726 | 0.62 | 0.383 |
| LCLC-97TM1 | 0.209 | – | 0.208 | 0.182 | 0.184 | 0.345 | – | 0.257 | 0.313 | 0.259 | 0.218 | 0.206 | 0.202 | 0.216 | 0.169 | 0.391 | – | 0.252 | 0.199 | 0.152 |
| HCC-44 | 1.07 | 1.1 | 1.02 | 0.987 | 1.1 | 0.738 | 0.803 | 0.789 | 0.747 | 0.85 | 0.871 | 0.781 | 1.1 | 1.1 | 1.11 | 1.03 | 0.98 | 0.97 | 0.96 | 1.01 |
| NCI-H322M | 0.499 | 0.474 | 0.491 | 0.482 | 0.51 | 0.949 | 0.883 | 0.858 | 0.813 | 0.697 | 0.471 | 0.448 | 0.403 | 0.412 | 0.343 | 0.59 | 0.572 | 0.524 | 0.507 | 0.451 |
| NCI-H1355 | 0.433 | 0.448 | 0.422 | 0.391 | 0.363 | 1.13 | – | 0.886 | 0.875 | 0.682 | 0.613 | 0.521 | 0.583 | 0.556 | 0.454 | 0.672 | 0.572 | 0.733 | 0.697 | 0.571 |
| ChaGo-K-1 | 0.852 | – | 0.874 | 0.939 | 0.954 | 0.961 | 0.639 | 1.07 | 1.12 | 1.13 | 0.218 | 0.21 | 0.25 | 0.225 | 0.223 | 0.885 | – | 0.867 | 0.905 | 0.861 |
| NCI-H1915 | 0.29 | – | 0.297 | 0.289 | 0.245 | 0.89 | 0.863 | 0.879 | 0.856 | 0.796 | 0.435 | 0.36 | 0.48 | 0.471 | 0.452 | 0.685 | – | 0.718 | 0.649 | 0.608 |
| NCI-H2126 | 0.575 | 0.528 | 0.518 | 0.509 | 0.431 | 1.04 | 1.04 | 0.928 | 0.789 | 0.598 | 0.837 | 0.746 | 0.531 | 0.542 | 0.363 | 0.937 | 0.848 | 0.8 | 0.732 | 0.584 |
| LCLC-103H | 0.7 | 0.617 | 0.686 | 0.654 | 0.547 | 1.04 | 1.04 | 0.846 | 0.995 | 0.804 | 0.483 | 0.385 | 0.559 | 0.423 | 0.357 | 0.731 | 0.55 | 0.716 | 0.708 | 0.539 |
| HCC-15 | 0.409 | – | 0.325 | 0.37 | 0.304 | 0.811 | – | 0.725 | 0.687 | 0.63 | 0.454 | – | 0.38 | 0.372 | 0.343 | 1.27 | – | 1.03 | 1.13 | 0.866 |
| NCI-H838 | 0.643 | 0.477 | 0.396 | 0.376 | 0.175 | 0.795 | 0.808 | 0.645 | 0.551 | 0.413 | 0.272 | 0.248 | 0.213 | 0.194 | 0.204 | 0.85 | 0.891 | 0.815 | 0.862 | 0.693 |
| LOU-NH91 | 0.798 | 0.662 | 0.581 | 0.612 | 0.62 | 0.745 | 0.676 | 0.584 | 0.592 | 0.505 | 0.778 | 0.51 | 0.541 | 0.575 | 0.452 | 0.753 | 0.679 | 0.62 | 0.572 | 0.528 |
| LXF-289 | 0.662 | 0.633 | 0.632 | 0.619 | 0.605 | 0.747 | 0.811 | 0.782 | 0.684 | 0.612 | 0.175 | 0.2 | 0.19 | 0.233 | 0.248 | 1.03 | 0.692 | 1.06 | 0.96 | 0.779 |
| NCI-H1666 | 0.862 | 0.704 | 0.784 | 0.727 | 0.728 | 1.09 | 0.895 | 0.632 | 0.552 | 0.621 | 0.642 | 0.585 | 0.539 | 0.47 | 0.458 | 0.881 | 0.58 | 0.842 | 0.74 | 0.684 |
| NCI-H460 | 0.0946 | 0.116 | 0.0577 | 0.185 | 0.0348 | 0.938 | 0.781 | 0.581 | 0.582 | 0.205 | 0.33 | 0.0915 | 0.563 | 0.486 | 0.467 | 0.591 | 0.512 | 0.557 | 0.484 | 0.178 |
